“Also recorded” adds a separate entry of the source.
How the values were obtained:
[1] = Stability of type-B fenolamine crystal form solid (influencing factors: high temperature, high humidity, illumination); assay type: physicochemical; details: starting ethanol content 2.58%
Description: Type-B fenolamine crystal form samples (having a crystallized ethanol content of 2.58%) were placed in open clean watch glasses, and kept under conditions of a high temperature of 60° C., a high temperature of 40° C., and 25° C., a relative humidity of 90%±5%, and illumination at 4500 lx±500 lx for 10 days, and samples were taken on Days 0, 5, and 10. Powder X-ray diffraction (with a resultant pattern consistent to that in FIG. 1) and gas chromatography means were used for analysis.

[2] = Dissolution of type-B fenolamine crystal form in six solvent systems; assay type: physicochemical
Description: The solubility was evaluated by using a type-B fenolamine crystal form sample (fenolamine:ethanol=1:0.2) having a crystallized ethanol content of 2.0%.
The solvent systems were selected by: (1) referring to solvent systems used in the dissolution determination method in the Appendix of the Pharmacopoeia; (2) referring to the digestive solution pH in various organs of an organism; (3) improving the solubility of water-insoluble drugs. Based the above three references, solvent systems with six pH values were set up: a 0.1 N hydrochloric acid solution with pH 1.2; an acetate buffer solution with pH 4.5; a phosphate buffer solution with pH 6.5; an water solution with pH 6.7; a 0.2% SDS solution with pH 7.0; a 0.5% SDS solution with pH 7.3.
Measurement was carried out according to the solubility determination method (“Guidelines for Dissolution Test Technique of General Oral Solid Preparations (Draft)”, October 2012, the Drug Review Center). With the percentage of the samples dissolved by mass calculated from the absorbance data, solubility curves were respectively drawn with time as abscissa and dissolved contents as ordinate and shown in FIG. 10.

- Crystallized ethanol content after storage ([1]; 10 days at high temperature): about 2.1%
- Dissolution (percentage of sample dissolved by mass) ([2]; 0.1N hydrochloric acid pH 1.2, 5 min): 0.00%
- Dissolution (percentage of sample dissolved by mass) ([2]; 0.1N hydrochloric acid pH 1.2, 15 min): 0.00%
- Dissolution (percentage of sample dissolved by mass) ([2]; 0.1N hydrochloric acid pH 1.2, 30 min): 2.35%
- Dissolution (percentage of sample dissolved by mass) ([2]; 0.1N hydrochloric acid pH 1.2, 60 min): 5.75%
- Dissolution (percentage of sample dissolved by mass) ([2]; 0.1N hydrochloric acid pH 1.2, 120 min): 11.42%
- Dissolution (percentage of sample dissolved by mass) ([2]; 0.1N hydrochloric acid pH 1.2, 180 min): 14.07%
- Dissolution (percentage of sample dissolved by mass) ([2]; 0.1N hydrochloric acid pH 1.2, 240 min): 18.54%
- Dissolution (percentage of sample dissolved by mass) ([2]; 0.1N hydrochloric acid pH 1.2, 300 min): 20.04%
- Dissolution (percentage of sample dissolved by mass) ([2]; 0.1N hydrochloric acid pH 1.2, 360 min): 23.69%
- Dissolution (percentage of sample dissolved by mass) ([2]; 0.1N hydrochloric acid pH 1.2, 420 min): 25.07%
- Dissolution (percentage of sample dissolved by mass) ([2]; 0.2% SDS pH 7.0, 5 min): 21.57%
- Dissolution (percentage of sample dissolved by mass) ([2]; 0.2% SDS pH 7.0, 15 min): 32.50%
- Dissolution (percentage of sample dissolved by mass) ([2]; 0.2% SDS pH 7.0, 30 min): 42.43%
- Dissolution (percentage of sample dissolved by mass) ([2]; 0.2% SDS pH 7.0, 60 min): 59.66%
- Dissolution (percentage of sample dissolved by mass) ([2]; 0.2% SDS pH 7.0, 120 min): 91.98%
- Dissolution (percentage of sample dissolved by mass) ([2]; 0.2% SDS pH 7.0, 180 min): 92.35%
- Dissolution (percentage of sample dissolved by mass) ([2]; 0.2% SDS pH 7.0, 240 min): 95.75%
- Dissolution (percentage of sample dissolved by mass) ([2]; 0.2% SDS pH 7.0, 300 min): 95.82%
- Dissolution (percentage of sample dissolved by mass) ([2]; 0.2% SDS pH 7.0, 360 min): 95.90%
- Dissolution (percentage of sample dissolved by mass) ([2]; 0.2% SDS pH 7.0, 420 min): 95.93%
- Dissolution (percentage of sample dissolved by mass) ([2]; 0.5% SDS pH 7.3, 5 min): 35.04%
- Dissolution (percentage of sample dissolved by mass) ([2]; 0.5% SDS pH 7.3, 15 min): 55.30%
- Dissolution (percentage of sample dissolved by mass) ([2]; 0.5% SDS pH 7.3, 30 min): 73.32%
- Dissolution (percentage of sample dissolved by mass) ([2]; 0.5% SDS pH 7.3, 60 min): 86.90%
- Dissolution (percentage of sample dissolved by mass) ([2]; 0.5% SDS pH 7.3, 120 min): 97.35%
- Dissolution (percentage of sample dissolved by mass) ([2]; 0.5% SDS pH 7.3, 180 min): 97.69%
- Dissolution (percentage of sample dissolved by mass) ([2]; 0.5% SDS pH 7.3, 240 min): 98.40%
- Dissolution (percentage of sample dissolved by mass) ([2]; 0.5% SDS pH 7.3, 300 min): 98.47%
- Dissolution (percentage of sample dissolved by mass) ([2]; 0.5% SDS pH 7.3, 360 min): 98.51%
- Dissolution (percentage of sample dissolved by mass) ([2]; 0.5% SDS pH 7.3, 420 min): 100.00%
- Dissolution (percentage of sample dissolved by mass) ([2]; Acetate buffer pH 4.5, 5 min): 0.00%
- Dissolution (percentage of sample dissolved by mass) ([2]; Acetate buffer pH 4.5, 15 min): 0.00%
- Dissolution (percentage of sample dissolved by mass) ([2]; Acetate buffer pH 4.5, 30 min): 0.49%
- Dissolution (percentage of sample dissolved by mass) ([2]; Acetate buffer pH 4.5, 60 min): 2.57%
- Dissolution (percentage of sample dissolved by mass) ([2]; Acetate buffer pH 4.5, 120 min): 7.54%
- Dissolution (percentage of sample dissolved by mass) ([2]; Acetate buffer pH 4.5, 180 min): 11.34%
- Dissolution (percentage of sample dissolved by mass) ([2]; Acetate buffer pH 4.5, 240 min): 15.82%
- Dissolution (percentage of sample dissolved by mass) ([2]; Acetate buffer pH 4.5, 300 min): 19.51%
- Dissolution (percentage of sample dissolved by mass) ([2]; Acetate buffer pH 4.5, 360 min): 20.15%
- Dissolution (percentage of sample dissolved by mass) ([2]; Acetate buffer pH 4.5, 420 min): 20.71%
- Dissolution (percentage of sample dissolved by mass) ([2]; Phosphate buffer pH 6.5, 5 min): 49.51%
- Dissolution (percentage of sample dissolved by mass) ([2]; Phosphate buffer pH 6.5, 15 min): 49.81%
- Dissolution (percentage of sample dissolved by mass) ([2]; Phosphate buffer pH 6.5, 30 min): 49.89%
- Dissolution (percentage of sample dissolved by mass) ([2]; Phosphate buffer pH 6.5, 60 min): 49.96%
- Dissolution (percentage of sample dissolved by mass) ([2]; Phosphate buffer pH 6.5, 120 min): 51.08%
- Dissolution (percentage of sample dissolved by mass) ([2]; Phosphate buffer pH 6.5, 180 min): 51.72%
- Dissolution (percentage of sample dissolved by mass) ([2]; Phosphate buffer pH 6.5, 240 min): 51.87%
- Dissolution (percentage of sample dissolved by mass) ([2]; Phosphate buffer pH 6.5, 300 min): 53.32%
- Dissolution (percentage of sample dissolved by mass) ([2]; Phosphate buffer pH 6.5, 360 min): 53.40%
- Dissolution (percentage of sample dissolved by mass) ([2]; Phosphate buffer pH 6.5, 420 min): 53.47%
- Dissolution (percentage of sample dissolved by mass) ([2]; Water pH 6.7, 5 min): 0.00%
- Dissolution (percentage of sample dissolved by mass) ([2]; Water pH 6.7, 15 min): 0.34%
- Dissolution (percentage of sample dissolved by mass) ([2]; Water pH 6.7, 30 min): 2.01%
- Dissolution (percentage of sample dissolved by mass) ([2]; Water pH 6.7, 60 min): 5.26%
- Dissolution (percentage of sample dissolved by mass) ([2]; Water pH 6.7, 120 min): 11.42%
- Dissolution (percentage of sample dissolved by mass) ([2]; Water pH 6.7, 180 min): 20.22%
- Dissolution (percentage of sample dissolved by mass) ([2]; Water pH 6.7, 240 min): 21.94%
- Dissolution (percentage of sample dissolved by mass) ([2]; Water pH 6.7, 300 min): 26.04%
- Dissolution (percentage of sample dissolved by mass) ([2]; Water pH 6.7, 360 min): 28.96%
- Dissolution (percentage of sample dissolved by mass) ([2]; Water pH 6.7, 420 min): 32.13%
SMILES: COc1ccc(OC)c(/C(=C\c2ccc(O)c(OC)c2)C(=O)NCCc2ccc(O)cc2)c1 [type-B fenolamine crystal form, trans-2-(2,5-dimethoxyphenyl)-3-(4-hydroxy-3-methoxyphenyl)-N-(4-hydroxyphenylethyl) acrylamide]
- Stability of the crystal form (powder X-ray diffraction and gas chromatography) ([1]; 60° C., 40° C., 25° C. with RH 90%±5%, 4500 lx±500 lx, 10 days): stable under conditions of high temperature, high humidity and light illumination
- Solubility in six solvent systems imitating different pH environments in human body (in words) ([2]; compared with type-F crystal form): good solubility; also recorded: superior to the type-F crystal form
